One assay deals with T1, KIT kinase (Homo sapiens, UniProt P10721).
T1 construct: made in house; host or cells: T7 phage display or HEK-293 cells
Briefly: Competition binding assay, KIT Kd. Here is the method:
(§1) In certain embodiments, competition binding assays were performed as described in Fabian et al., Nature Biotechnology 2005, 23,329-336.
(§2) Competition binding assays used herein were developed, validated and performed as described in Fabian et al., Nature Biotechnology 2005, 23,329-336. Kinases were produced as fusions to T7 phage (See, Fabian et al. or WO04/015142) or alternatively, the kinases were expressed in HEK-293 cells and subsequently tagged with DNA for PCR detection (See, WO08/005,310). For the binding assays, streptavidin-coated magnetic beads were treated with biotinylated affinity ligands for 30 min at room temperature to generate affinity resins. The liganded beads were blocked with excess biotin and washed with blocking buffer (SeaBlock (Pierce), 1% BSA, 0.05% Tween 20, 1 mM DTT) to remove unbound ligand and to reduce non-specific binding. Binding reactions were assembled by combining kinase, liganded affinity beads, and test compounds in 1× binding buffer (20% SeaBlock, 0.17×PBS, 0.05% Tween 20, 6 mM DTT). Test compounds were prepared as 100× stocks in DMSO and diluted into the aqueous environment. Kds were determined using an eleven point threefold serial dilutions. DMSO or control compounds were was added to control assays lacking a test compound. Primary screen assays were performed in polypropylene 384-well plates in a final volume of 20-40 μL, while Kd determinations were performed in polystyrene 96-well plates in a final volume of 135 μL. The assay plates were incubated at room temperature with shaking for 1 hour to allow the binding reactions to reach equilibrium, and the affinity beads were washed extensively with wash buffer (1×PBS, 0.05% Tween 20) to remove unbound protein. The beads were then resuspended in elution buffer (1×PBS, 0.05% Tween 20, 0.5 μM non-biotinylated affinity ligand) and incubated at room temperature with shaking for 30 min. The kinase concentration in the eluates was measured by quantitative PCR.

The next assay has as its system MV4-11 cells. Briefly: MV4-11 cell proliferation assay (Alamar Blue). In kind it is cell-based. The note with it: Homo sapiens, MV4-11, 72 h, 3 days incubation. As for the experimental part:
The compounds disclosed herein were tested in an MV4-11 cell proliferation assay to determine their cellular potency against Flt3. MV4-11 cells carry ITD mutation within juxtamembrane domain of Flt3 kinase which renders the kinase constitutively active. […] This assay measures the potency of compounds as Flt3 inhibitors by measuring the reduction of Alamar Blue reagent by viable cells.
MV4-11 cells were grown in an incubator at 37° C. under 5% CO2 in Iscove's media (Celgro) with 10% FBS. The cell density was kept between 1e5 and 8e5 cells/mL.
On day one of the experiment, cells were harvested and spun at 500 g for 5 min at 4° C., the supernatant aspirated and the cells resuspended in Iscove's media with 0.5% FBS. Cell density was maintained at 7.5e5 to achieve maximum viability of the cells. The resuspended cells were incubated at 37° C. in 5% CO2 overnight.
On day two of the experiment, cells were diluted to 6.4e5/mL with Iscove's media with 0.5% FBS. 100 μL of the cell suspension (64,000 cells) were aliquoted into each well of a 96-well TC-treated plate. Compounds were added at 9 different concentrations, with half-log intervals alongside a control reference compound serving as a positive control. Final DMSO concentration was kept at 0.5% and final volume at 200 μL. The cells were then incubated at 37° C. under 5% CO2 for 3 days.
On day five of the experiment, 40 μL of Alamar Blue reagent was added to each well and the mixture was allowed to incubate for 3 hours. Alamar Blue fluorescence was measured using SoftMax Pro software at 560 nm (excitation) and 590 nm (emission). IC50s were generated as an average of duplicates and represents the concentration of test compound that achieves 50% inhibition of cellular proliferation compared to negative control.
On the technique in general: The colour change of resazurin is a common sign of viable cells or microbes.

The target of a further assay is T2, FLT3 kinase (Homo sapiens, UniProt P36888).
T2 construct: made in house; host or cells: T7 phage display or HEK-293 cells
T2 sequence (P36888 27-993): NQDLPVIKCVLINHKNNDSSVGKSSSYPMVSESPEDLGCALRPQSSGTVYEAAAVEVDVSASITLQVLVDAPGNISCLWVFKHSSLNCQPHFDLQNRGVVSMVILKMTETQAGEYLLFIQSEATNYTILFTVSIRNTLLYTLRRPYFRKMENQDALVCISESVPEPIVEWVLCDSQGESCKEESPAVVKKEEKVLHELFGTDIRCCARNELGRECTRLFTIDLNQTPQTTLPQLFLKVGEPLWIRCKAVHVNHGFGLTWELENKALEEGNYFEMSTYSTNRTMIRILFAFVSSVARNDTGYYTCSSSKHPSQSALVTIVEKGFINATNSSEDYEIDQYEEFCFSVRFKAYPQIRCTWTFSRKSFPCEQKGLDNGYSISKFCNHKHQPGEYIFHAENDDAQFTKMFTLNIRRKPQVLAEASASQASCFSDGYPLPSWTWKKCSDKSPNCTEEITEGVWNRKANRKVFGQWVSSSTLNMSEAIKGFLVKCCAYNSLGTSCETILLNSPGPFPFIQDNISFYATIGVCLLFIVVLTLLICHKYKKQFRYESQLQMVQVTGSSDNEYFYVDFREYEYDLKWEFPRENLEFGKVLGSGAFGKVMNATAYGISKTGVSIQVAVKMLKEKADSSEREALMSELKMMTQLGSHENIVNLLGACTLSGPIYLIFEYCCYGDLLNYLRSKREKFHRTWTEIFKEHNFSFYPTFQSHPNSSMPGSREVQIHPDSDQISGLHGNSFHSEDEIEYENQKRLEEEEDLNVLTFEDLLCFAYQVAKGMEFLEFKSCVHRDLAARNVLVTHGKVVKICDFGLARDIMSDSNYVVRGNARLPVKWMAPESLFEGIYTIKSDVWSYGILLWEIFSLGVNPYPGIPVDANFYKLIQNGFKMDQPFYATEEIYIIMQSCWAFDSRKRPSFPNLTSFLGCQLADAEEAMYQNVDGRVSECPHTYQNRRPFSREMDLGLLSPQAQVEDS
Briefly: Competition binding assay, FLT3 Kd. As for the experimental part: as §1, §2

In the next assay the target is T3, CSF-1R kinase (Homo sapiens, UniProt P07333).
T3 construct: made in house; host or cells: T7 phage display or HEK-293 cells
As to the kind of experiment: Competition binding assay, CSF-1R Kd. As for the experimental part:
as §1, §2

T1 sequence (P10721 26-976): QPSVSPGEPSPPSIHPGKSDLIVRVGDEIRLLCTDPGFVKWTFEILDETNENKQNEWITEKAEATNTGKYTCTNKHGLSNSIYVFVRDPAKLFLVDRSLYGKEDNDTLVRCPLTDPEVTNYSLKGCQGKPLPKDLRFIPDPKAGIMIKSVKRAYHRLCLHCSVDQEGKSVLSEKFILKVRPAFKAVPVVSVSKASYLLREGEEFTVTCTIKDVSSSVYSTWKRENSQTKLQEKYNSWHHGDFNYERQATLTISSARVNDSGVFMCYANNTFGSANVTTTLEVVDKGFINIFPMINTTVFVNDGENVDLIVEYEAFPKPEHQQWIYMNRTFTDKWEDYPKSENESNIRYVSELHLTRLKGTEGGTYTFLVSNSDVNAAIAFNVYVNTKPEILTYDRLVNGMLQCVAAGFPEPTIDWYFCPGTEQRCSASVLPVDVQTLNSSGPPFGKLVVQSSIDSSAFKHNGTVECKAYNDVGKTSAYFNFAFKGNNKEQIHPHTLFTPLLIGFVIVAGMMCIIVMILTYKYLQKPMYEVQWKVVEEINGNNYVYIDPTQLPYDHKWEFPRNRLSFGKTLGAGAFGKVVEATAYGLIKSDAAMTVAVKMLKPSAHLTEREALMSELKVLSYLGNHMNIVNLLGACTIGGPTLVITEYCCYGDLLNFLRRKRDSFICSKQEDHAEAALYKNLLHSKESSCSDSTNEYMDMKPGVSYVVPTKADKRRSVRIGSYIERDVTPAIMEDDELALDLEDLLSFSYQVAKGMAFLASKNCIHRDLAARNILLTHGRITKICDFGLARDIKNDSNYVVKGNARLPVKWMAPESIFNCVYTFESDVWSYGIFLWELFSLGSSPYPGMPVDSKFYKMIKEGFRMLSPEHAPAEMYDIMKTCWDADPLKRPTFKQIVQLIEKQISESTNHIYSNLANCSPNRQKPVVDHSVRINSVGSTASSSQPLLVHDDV
T3 sequence (P07333 20-972): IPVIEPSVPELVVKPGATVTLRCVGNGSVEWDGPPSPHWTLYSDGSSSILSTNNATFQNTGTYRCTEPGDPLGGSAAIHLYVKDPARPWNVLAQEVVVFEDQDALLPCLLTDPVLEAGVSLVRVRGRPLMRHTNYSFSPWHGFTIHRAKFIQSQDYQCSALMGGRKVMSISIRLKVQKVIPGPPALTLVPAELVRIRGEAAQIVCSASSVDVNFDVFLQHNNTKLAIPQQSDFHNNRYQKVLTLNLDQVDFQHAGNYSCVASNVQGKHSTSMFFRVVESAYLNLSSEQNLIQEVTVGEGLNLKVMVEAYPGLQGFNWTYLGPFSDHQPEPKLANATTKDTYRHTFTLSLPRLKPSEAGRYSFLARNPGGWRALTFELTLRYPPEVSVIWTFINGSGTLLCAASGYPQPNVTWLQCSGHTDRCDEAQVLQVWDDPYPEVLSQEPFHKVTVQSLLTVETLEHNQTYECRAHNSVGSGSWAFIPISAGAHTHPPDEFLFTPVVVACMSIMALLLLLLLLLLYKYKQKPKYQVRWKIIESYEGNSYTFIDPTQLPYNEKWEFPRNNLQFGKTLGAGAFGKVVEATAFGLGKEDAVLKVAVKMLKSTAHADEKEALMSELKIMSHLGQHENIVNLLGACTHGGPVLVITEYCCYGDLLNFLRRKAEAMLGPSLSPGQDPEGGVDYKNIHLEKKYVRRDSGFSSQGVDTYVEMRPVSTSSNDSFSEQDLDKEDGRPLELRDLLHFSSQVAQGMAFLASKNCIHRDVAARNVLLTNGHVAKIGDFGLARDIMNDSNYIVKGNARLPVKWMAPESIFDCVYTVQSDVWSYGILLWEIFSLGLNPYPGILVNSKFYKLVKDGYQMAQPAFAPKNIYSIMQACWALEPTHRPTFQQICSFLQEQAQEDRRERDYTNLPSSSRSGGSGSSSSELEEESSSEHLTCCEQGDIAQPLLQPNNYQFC

As for `CC(C)(C)c1cc(NC(=O)Cc2ccc(-c3cnc(N)c(C(N)=O)n3)cc2)no1` [Example 114, 5-(4-(2-(5-tert-butylisoxazol-3-ylamino)-2-oxoethyl)phenyl)-3-carbamoylpyrazin-2-aminium methanesulfonate], the Kd (as a rule, a measure of binding affinity in units of concentration) on KIT kinase was no more than 0.001 µM; at FLT3 kinase, no more than 0.001 µM; at CSF-1R kinase, no more than 0.01 µM. In addition, the 50% inhibitory concentration (IC50) – broadly, the concentration that inhibits the measured activity by half – in the assay on MV4-11 cells is no more than 0.001 µM.

For the compound `COc1cc(-c2ccc(N)nc2)ccc1NC(=O)Nc1cc(C(C)(C)C)on1` [Example 69, 5-(4-(3-(5-tert-butylisoxazol-3-yl)ureido)-3-methoxyphenyl)pyridin-2-aminium methanesulfonate], the dissociation constant Kd on KIT kinase was no more than 0.001 µM; at FLT3 kinase, 0.001 to 0.01 µM; on CSF-1R kinase it was no more than 0.01 µM. In the assay on MV4-11 cells, this compound came in with an IC50 of 0.01 to 0.1 µM.

As for `CN1CC(=O)Nc2ncc(-c3ccc(CC(=O)Nc4cc(C(C)(C)C)on4)cc3)cc2C1` [Example 190], the equilibrium dissociation constant (Kd) is 0.001 to 0.01 µM on KIT kinase, 0.001 to 0.01 µM on FLT3 kinase and 0.1 to 0.5 µM at CSF-1R kinase. In the assay with MV4-11 cells, the 50% inhibitory concentration (IC50) was in the range of 0.01 to 0.1 µM.

On to `CC(C)(F)c1cc(NC(=O)Nc2ccc(-c3ccc(N)nc3)cn2)on1` [Example 42, 1-(6′-amino-3,3′-bipyridin-6-yl)-3-(3-(2-fluoropropan-2-yl)isoxazol-5-yl)urea], for which the Kd on KIT kinase is no more than 0.001 µM; on FLT3 kinase it was 0.001 to 0.01 µM; at CSF-1R kinase, no more than 0.01 µM. In addition, in the assay on MV4-11 cells, the IC50 fell in the range of 0.01 to 0.1 µM.

With `CC(C)(C)c1cc(NC(=O)Cc2ccc(-c3cnc(NCCN4CCOCC4)nc3)cc2)no1` [Example 75, N-(5-tert-butylisoxazol-3-yl)-2-(4-(2-(2-morpholinoethylamino)pyrimidin-5-yl)phenyl)acetamide], the equilibrium dissociation constant (Kd) on KIT kinase was 0.001 to 0.01 µM; on FLT3 kinase it was no more than 0.001 µM; on CSF-1R kinase, no more than 0.01 µM. For the same compound, the IC50 in the assay on MV4-11 cells is no more than 0.001 µM.

`O=C(Nc1ccc(-c2ccc(NCCN3CCOCC3)nc2)cc1)Nc1cc(C2(C(F)(F)F)CC2)on1` [Example 36, 4-(2-(5-(4-(3-(5-(1-(trifluoromethyl)cyclopropyl)isoxazol-3-yl)ureido)phenyl)pyridin-2-ylamino)ethyl)morpholin-4-ium methanesulfonate]: the Kd was no more than 0.001 µM on KIT kinase, no more than 0.001 µM at FLT3 kinase and no more than 0.01 µM at CSF-1R kinase. Also, the half-inhibitory concentration (IC50) with MV4-11 cells lay in the range of 0.001 to 0.01 µM.

Consider `CC(C)(C)c1cc(NC(=O)Cc2ccc(-c3cnc(N)c([S+]([O-])C(C)(C)C)c3)cc2)no1` (stereo not shown) [Example 179], for which the dissociation constant (Kd) was 0.001 to 0.01 µM on KIT kinase, no more than 0.001 µM at FLT3 kinase and 0.1 to 0.5 µM at CSF-1R kinase. The 50% inhibitory concentration (IC50) in the assay with MV4-11 cells is 0.001 to 0.01 µM.

As for `CC(CF)(CF)c1cc(NC(=O)Nc2ccc(-c3ccc(N)nc3)cc2)no1` [Example 34, 5-(4-(3-(5-(1,3-difluoro-2-methylpropan-2-yl)isoxazol-3-yl)ureido)phenyl)pyridin-2-aminium methanesulfonate], the dissociation constant Kd was no more than 0.001 µM at KIT kinase, no more than 0.001 µM on FLT3 kinase and no more than 0.01 µM on CSF-1R kinase. The compound also registered a 50% inhibitory concentration (IC50) with MV4-11 cells of no more than 0.001 µM.

`Cn1nc(C(C)(C)CO)cc1NC(=O)Nc1ccc(-c2ccc(N)nc2)cc1` [Example 82, 5-(4-(3-(3-(1-hydroxy-2-methylpropan-2-yl)-1-methyl-1H-pyrazol-5-yl)ureido)phenyl)pyridin-2-aminium methanesulfonate]: the Kd at KIT kinase is 0.001 to 0.01 µM; at FLT3 kinase, 0.001 to 0.01 µM; at CSF-1R kinase, 0.01 to 0.1 µM. Also, in the assay on MV4-11 cells, the IC50 was in the range of 0.1 to 0.5 µM.

In the case of `CC(C)(C)c1cc(NC(=O)Cc2ccc(-c3ccc(N)nc3)cn2)no1` [Example 76, 2-(6′-amino-3,3′-bipyridin-6-yl)-N-(5-tert-butylisoxazol-3-yl)acetamide], the Kd on KIT kinase is no more than 0.001 µM; on FLT3 kinase, no more than 0.001 µM; on CSF-1R kinase it was no more than 0.01 µM. The IC50 in the assay on MV4-11 cells fell in the range of 0.001 to 0.01 µM.

With `CC(C)(C)c1cc(NC(=O)C(F)(F)c2ccc(-c3ccc(N)nc3)cc2)no1` [Example 178], the Kd on KIT kinase is 0.001 to 0.01 µM; on FLT3 kinase, no more than 0.001 µM; at CSF-1R kinase it was no more than 0.01 µM. The same compound came in with a 50% inhibitory concentration (IC50) in the assay on MV4-11 cells of 0.001 to 0.01 µM.

Turning to `CC(C)(F)c1cc(NC(=O)Nc2ccc(-c3ccc(N)nc3)cc2)on1` [Example 32, 5-(4-(3-(3-(2-fluoropropan-2-yl)isoxazol-5-yl)ureido)phenyl)pyridin-2-aminium methanesulfonate], the Kd was no more than 0.001 µM at KIT kinase, no more than 0.001 µM on FLT3 kinase and no more than 0.01 µM at CSF-1R kinase. This compound registered an IC50 in the assay on MV4-11 cells of 0.001 to 0.01 µM.

In the case of `COCCNc1ccc(-c2ccc(CC(=O)Nc3cc(C(C)(C)C)on3)cc2)cn1` [Example 89, 5-(4-(2-(5-tert-butylisoxazol-3-ylamino)-2-oxoethyl)phenyl)-N-(2-methoxyethyl)pyridin-2-aminium methanesulfonate], the dissociation constant (Kd) was 0.001 to 0.01 µM at KIT kinase, no more than 0.001 µM on FLT3 kinase and no more than 0.01 µM on CSF-1R kinase. Moreover, the IC50 in the assay with MV4-11 cells was 0.001 to 0.01 µM.

In the case of `CC(C)(C)c1cc(NC(=O)Nc2ccc(-c3ccc(N)nc3)cc2)on1` [Example 70, 5-(4-(3-(3-tert-butylisoxazol-5-yl)ureido)phenyl)pyridin-2-aminium methanesulfonate], the equilibrium dissociation constant (Kd) on KIT kinase is 0.001 to 0.01 µM; at FLT3 kinase, 0.001 to 0.01 µM; on CSF-1R kinase, no more than 0.01 µM. This compound also came in with an IC50 with MV4-11 cells of no more than 0.001 µM.

Turning to `CC1(c2cc(NC(=O)Cc3ccc(-c4cnc(N)cc4Cl)cc3)no2)CC1` [Example 172], the dissociation constant Kd at KIT kinase was no more than 0.001 µM; on FLT3 kinase it was no more than 0.001 µM; on CSF-1R kinase, no more than 0.01 µM. Further, the IC50 with MV4-11 cells was 0.001 to 0.01 µM.

In the case of `CS(=O)(=O)CCNc1ccc(-c2ccc(CC(=O)Nc3cc(C4(C(F)(F)F)CC4)on3)cc2)cn1` [Example 188], the values for the Kd on KIT kinase and on CSF-1R kinase were 0.001 to 0.01 µM and 0.01 to 0.1 µM, respectively. Besides, the half-inhibitory concentration (IC50) in the assay with MV4-11 cells was no more than 0.001 µM.

The compound `CC(C)(C)c1cc(NC(=O)Cc2ccc(-c3cnc4ccc(=O)[nH]c4c3)cc2)no1` [Example 191] had a 50% inhibitory concentration (IC50) with MV4-11 cells of 0.001 to 0.01 µM.

`Nc1cc(F)c(-c2ccc(CC(=O)Nc3cc(C4(C(F)(F)F)CC4)on3)cc2)cn1` [Example 189]: the dissociation constant Kd is 0.001 to 0.01 µM at KIT kinase and no more than 0.01 µM on CSF-1R kinase. Also, the half-inhibitory concentration (IC50) in the assay with MV4-11 cells was no more than 0.001 µM.
